Source: EP3071301B1, “QUERCUS PLANT EXTRACT AS ACTIVE AGENT WITH SKIN ANTI-AGEING PROPERTIES AND COSMETIC COMPOSITIONS CONTAINING IT” (Charlois Cosmetiques, priority 2013, dated 2015)

Legend:
[1] = target: T1, hyaluronidase bovine (EC 3.2.1.35) (Bos taurus, UniProt Q2YDK3); experiment: Hyaluronidase enzymatic activity inhibition (Experiment B); format: biochemical
T1 sequence (Q2YDK3 36-553): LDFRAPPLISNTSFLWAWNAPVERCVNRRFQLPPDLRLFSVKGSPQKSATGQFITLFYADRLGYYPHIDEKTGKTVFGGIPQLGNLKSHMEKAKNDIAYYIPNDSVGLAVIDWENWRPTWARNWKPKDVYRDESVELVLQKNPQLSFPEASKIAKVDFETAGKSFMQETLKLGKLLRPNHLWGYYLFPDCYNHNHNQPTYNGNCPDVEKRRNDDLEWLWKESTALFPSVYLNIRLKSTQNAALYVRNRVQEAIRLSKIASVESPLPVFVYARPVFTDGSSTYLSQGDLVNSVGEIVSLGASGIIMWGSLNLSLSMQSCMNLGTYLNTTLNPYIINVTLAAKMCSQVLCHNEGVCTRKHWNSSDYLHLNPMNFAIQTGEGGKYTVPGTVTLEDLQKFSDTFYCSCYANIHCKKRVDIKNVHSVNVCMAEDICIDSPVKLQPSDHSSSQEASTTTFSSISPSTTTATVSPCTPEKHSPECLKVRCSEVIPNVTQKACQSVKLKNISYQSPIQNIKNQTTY
Method: L'enzyme est la hyaluronidase bovine (EC 3.2.1.35), préparée tampon phosphate de sodium / chlorure de sodium / BSA, pH 7, et utilisée à 10 U/ml.
Le substrat est l'acide hyaluronique, préparé en tampon phosphate de sodium à pH 5,35 et testé à […].
Les principes actifs selon l'invention et la référence (acide 6-O-palmitoylascorbique, noté APA, testé à 300 µg/ml) sont mis en présence de la hyaluronidase et pré-incubés pendant 10 min à 37 °C sous agitation. L'acide hyaluronique est ensuite ajouté et les mélanges réactionnels sont incubés à 37 °C pendant 2 h. Des conditions contrôles sont réalisées en parallèle en incubant les principes actifs ou la référence en présence du substrat mais en absence de l'enzyme (Contrôle sans enzyme) ou en incubant les principes actifs ou la référence seuls (Contrôle interférence). Il est également réalisé un témoin en incubant l'enzyme seule (Témoin).
La réaction enzymatique est ensuite stoppée par précipitation de l'acide hyaluronique avec une solution tampon contenant de l'albumine de sérum bovin (BSA) à pH 3,75. […] L'activité est inversement proportionnelle à la valeur de DO mesurée.
(§1) Chaque expérience est tripliquée.
(§2) Les résultats sont exprimés en pourcentage d'activité de la hyaluronidase et en pourcentage d'inhibition de l'activité de la hyaluronidase. […]

[2] = Hydrogen peroxide assay (Amplex Red Hydrogen Peroxide/Peroxidase kit); conditions: hydrogen peroxide; 50 µM; 30 min
Excerpt: (§3) Le principe actif E2 conforme à l'invention est soumis au test suivant, à des concentrations de 0,1; 0,3; 0,5; 1; 3 % p/p (% en poids de principe actif à tester, par rapport au poids final de milieu contenant le principe actif).
L'essai est réalisé au moyen du kit de dosage Amplex® Red Hydrogen Peroxyde/Peroxydase Assay Kit (Molecular Probes®), dont le réactif 10-acétyl-3,7-dihydroxyphénoxazine est utilisé pour déterminer la quantité de peroxyde d'hydrogène présent. Le substrat non coloré réagit avec le peroxyde d'hydrogène (H2O2) dans un rapport stoechiométrique 1:1 pour produire de la résofurine hautement fluorescente. […]
Le principe actif selon l'invention et le BHA (3-tert-butyl-4-hydroxyanisole), en tant que témoin, à une concentration de 50 µM, sont incubés en présence d'H2O2, de réactif Amplex® Red et d'enzyme Horse Radish Peroxydase (HRP) pendant 30 min à température ambiante. Puis la fluorescence est mesurée, pour une longueur d'onde d'excitation de 540 nm et une longueur d'onde d'émission de 590 nm.
Des contrôles d'auto-fluorescence et d'absorption de fluorescence (quenching) sont aussi réalisés pour chaque concentration de principe actif selon l'invention et du témoin. Les contrôles d'absorption de fluorescence sont réalisés en incubant le peroxyde d'hydrogène (H2O2), le réactif Amplex® Redet l'enzyme HRP pendant 30 min. […]

MMP totales = experiment: Total matrix metalloprotease (MMP) activity inhibition, fluorogenic peptide; format: biochemical, humains
Excerpt: Le principe actif E2 conforme à l'invention est soumis au test suivant, à des concentrations de 1 et 3 % p/p, selon le protocole décrit dans la publication de Sim et al., 2007, Arch Pharm Res, 30(3): 290-298.
Les MMP totales (obtenues selon un protocole standard à partir de surnageants de fibroblastes dermiques humains normaux, irradiés avec des UVB (20 mJ/cm^2)) sont traitées par le mélange inflammatoire acétate de phorbol myristate (PMA) et facteur de nécrose tumorale (TNFα).
Le substrat fluorescent est le peptide fluorogénique décrit dans la publication de Lee et al., 1999, Annals of the New York Academy of Sciences, 878: 635-637, et commercialisé sous la référence M6412 par la société Sigma-Aldrich.
Le principe actif E2 conforme à l'invention ou le témoin (O-phénantroline testée à 0,03; 0,1; 0,3 et 1 mM) sont préincubés pendant 10 min sur glace en présence des MMP totales activées, puis le substrat fluorescent est ajouté. Les plaques ont été incubées pendant 3h à 37°C. Un contrôle d'interférence du composé (composé en présence du mélange réactionnel sans enzyme) et un contrôle « quenching » (mélange réactionnel contenant le substrat et l'enzyme dans lequel le composé n'est ajouté qu'en fin d'incubation) ont été réalisés en parallèle. Le contrôle […] permet de vérifier l'absorption non spécifique de la fluorescence par le composé et donc la spécificité de l'inhibition observée dans la condition test correspondante.
as §1
A la fin de l'incubation, la fluorescence produite suite à la dégradation du substrat est mesurée par fluorimétrie pour une longueur d'onde d'excitation de 328 nm et une longueur d'onde d'émission de 393 nm, au moyen du dispositif SpectroMax Gemini, Molecular Devices.
Le % d'inhibition des MMPs totales est calculé pour chaque échantillon testé. Les résultats obtenus sont montrés dans le tableau 6 ci-après. Tableau 6 - Inhibition de l'activité des MMP totales par le principe actif E2 conforme à l'invention

[3] = target: T2, hyaluronidase (EC 3.2.1.35) (Bos taurus, UniProt Q2YDK3); experiment: Hyaluronidase activity inhibition (Experiment A); format: biochemical
T2 sequence (Q2YDK3 36-553): T1 sequence (Q2YDK3 36-553)
Excerpt: as §3
Le substrat est l'acide hyaluronique, testé à 0,04 % en tampon phosphate de sodium.
L'enzyme est la hyaluronidase (EC 3.2.1.35) testée à 10 U/ml en tampon phosphate de sodium / chlorure de sodium / BSA.
Le principe actif selon l'invention et les témoins (vitamine C à 10 mg/l et palmitate d'ascorbyle à 200 µg/ml) sont mis en présence de la hyaluronidase et incubés pendant 10 min à 37 °C sous agitation. L'acide hyaluronique est ensuite ajouté et les mélanges réactionnels sont incubés à 37 °C pendant 2 h. Des conditions contrôles additionnelles sont réalisées en incubant le produit et le substrat en l'absence de l'enzyme, ou en incubant le produit seul correspondant à un contrôle interférence. La réaction enzymatique est ensuite stoppée par précipitation de l'acide hyaluronique avec une solution d'albumine de sérum bovin (BSA). L'absorption (DO) à 540 nm est mesurée à l'aide d'un lecteur de microplaques (ThermoMax, Molecular Devices).
as §1, §2

## CCCCCCCCCCCCCCCC(=O)OC[C@H](O)[C@H]1OC(=O)C(O)=C1O [APA, acide 6-O-palmitoylascorbique]
[1]
  inhibition at 300 µg/mL: 79%
[1]; read-out: Activité hyaluronidase (%)
  activity at 300 µg/mL: 21%

## COc1ccc(O)c(C(C)(C)C)c1 [BHA, 3-tert-butyl-4-hydroxyanisole]
[2]
  % inhibition: 60%

## c1cnc2c(c1)ccc1cccnc12 [O-Phénanthroline]
MMP totales; 0,1 mM, 100 µM
  % inhibition: 15%
MMP totales; 0,03 mM, 30 µM
  % inhibition: 1%
MMP totales; 0,3 mM, 300 µM
  % inhibition: 73%
MMP totales; 1 mM
  % inhibition: 97%

## CCCCCCCCCCCCCCCC(=O)OC[C@H](O)[C@H]1OC(=O)C(O)=C1O [Palmitate d'ascorbyle, palmitate d'ascorbyle]
[3]; 200 µg/ml
  inhibition at 200 µg/mL: 80%

## O=C1O[C@H]([C@@H](O)CO)C(O)=C1O [Vitamine C]
[3]; 10 mg/ml
  inhibition at 10000 µg/mL: 71%
